Source: ChEMBL document CHEMBL3352419, “Antiprotozoal activity of 8-acyl and 8-alkyl incomptine A analogs” (Bioorg Med Chem Lett, 2014)
Converted amounts (≈) assume the structure as drawn.

What was measured:
Giardia intestinalis = assay: Antiprotozoal activity against Giardia lamblia IMSS: 8909:1 trophozoites assessed as growth inhibition compound treated for 48 hrs measured 48 hrs post wash-out by MTT assay; format: functional, organism-based; conditions: Giardia duodenalis, IMSS: 8909:1, 48 h
Entamoeba histolytica = assay: Antiprotozoal activity against Entamoeba histolytica HM-1:IMSS trophozoites assessed as growth inhibition compound treated for 48 hrs measured 48 hrs post wash-out by MTT assay; format: functional, organism-based

Structure (SMILES) | IC50 (Giardia intestinalis) | IC50 (Entamoeba histolytica)
C=C1C(=O)O[C@H]2/C=C(C)\C=C/[C@H]3O[C@]3(C)C[C@@H](OC(C)=O)[C@@H]12 | 18.1 µg/mL (≈ 59.5 µM) | 2.6 µg/mL (≈ 8.54 µM)
C=C1C(=O)O[C@H]2/C=C(C)\C=C/[C@H]3O[C@]3(C)C[C@@H](O)[C@@H]12 | 257 µg/mL (≈ 979 µM) | 138 µg/mL (≈ 525 µM)
C=C1C(=O)O[C@H]2/C=C(C)\C=C/[C@H]3O[C@]3(C)C[C@@H](OC(=O)C(F)(F)F)[C@@H]12 | 43.3 µg/mL (≈ 121 µM) | 37.7 µg/mL (≈ 105 µM)
C=C1C(=O)O[C@H]2/C=C(C)\C=C/[C@H]3O[C@]3(C)C[C@@H](OC(=O)CC)[C@@H]12 | 68.8 µg/mL (≈ 216 µM) | 51.6 µg/mL (≈ 162 µM)
C=C1C(=O)O[C@H]2/C=C(C)\C=C/[C@H]3O[C@]3(C)C[C@@H](OC(=O)CCC)[C@@H]12 | 51.7 µg/mL (≈ 156 µM) | 49.1 µg/mL (≈ 148 µM)
C=C1C(=O)O[C@H]2/C=C(C)\C=C/[C@H]3O[C@]3(C)C[C@@H](OC(=O)C(C)C)[C@@H]12 | 62.2 µg/mL (≈ 187 µM) | 52.7 µg/mL (≈ 159 µM)
C=C1C(=O)O[C@H]2/C=C(C)\C=C/[C@H]3O[C@]3(C)C[C@@H](OC(=O)CCCC)[C@@H]12 | 58.3 µg/mL (≈ 168 µM) | 51.7 µg/mL (≈ 149 µM)
C=C(C)C(=O)O[C@@H]1C[C@@]2(C)O[C@@H]2/C=C\C(C)=C/[C@@H]2OC(=O)C(=C)[C@@H]21 | 44.2 µg/mL (≈ 134 µM) | 32.7 µg/mL (≈ 99 µM)
C=C1C(=O)O[C@H]2/C=C(C)\C=C/[C@H]3O[C@]3(C)C[C@@H](OC)[C@@H]12 | 35.2 µg/mL (≈ 127 µM) | 29.4 µg/mL (≈ 106 µM)
C=C1C(=O)O[C@H]2/C=C(C)\C=C/[C@H]3O[C@]3(C)C[C@@H](OCC)[C@@H]12 | 43.8 µg/mL (≈ 151 µM) | 31.9 µg/mL (≈ 110 µM)
C=C1C(=O)O[C@H]2/C=C(C)\C=C/[C@H]3O[C@]3(C)C[C@@H](OCCC)[C@@H]12 | 31.2 µg/mL (≈ 103 µM) | 35.9 µg/mL (≈ 118 µM)
C=C1C(=O)O[C@H]2/C=C(C)\C=C/[C@H]3O[C@]3(C)C[C@@H](OC(C)C)[C@@H]12 | 32.7 µg/mL (≈ 107 µM) | 28.7 µg/mL (≈ 94.3 µM)
C=C1C(=O)O[C@H]2/C=C(C)\C=C/[C@H]3O[C@]3(C)CC(=O)[C@@H]12 | 30.6 µg/mL (≈ 118 µM) | 34.9 µg/mL (≈ 134 µM)
